Measurements: US12371675B2, “Process and microorganism for synthesis of adipic acid from carboxylic acids” (THE GOVERNING COUNCIL OF THE UNIVERSITY OF TORONTO, priority 2015, dated 2025)

What was measured:
[1] = target: Bacillus coagulans 36D1 2-enoate reductase EREDBC, SEQ ID NO: 1 (Heyndrickxia coagulans, UniProt A0AAN0T7I1); test: Kinetics of purified EREDBC, NADH oxidation at 340 nm, anaerobic; assay type: biochemical; settings: for saturation by substrate: anaerobic, aqueous buffer
Procedure: (§1) The C═C reducing activity of EREDs was examined. Enzyme activity of purified EREDs was measured spectrophotometrically in 96-well plates by following incubation for 3-5 min at 30° C. in the anaerobic chamber as described in M. Buhler, H. Simon, Hoppe-Seyler's Zeitschrift fur Physiologische Chemie 1982, 363, 609-625. Buffers and reagents were degassed and sparged with Ar. Reaction mixture contained potassium phosphate (100 mM and pH 7.0), NADH (0.5 mM), indicated substrates, and proteins (0.1-50 μg) in a final volume of 200 μL. Enzyme reactions were monitored by following the decrease in absorbance at 340 nm (ε340 nm=6,220/M·cm) due to oxidation of NADH to NAD+.
(§2) For in vitro biochemical characterization, enzyme activities of purified EREDs were measured with 2-hexenedioic acid, cis-cis-muconic acid, trans-trans muconic acid, trans-cinnamic acid, trans-2-methyl-2-butenoic acid, trans-2-butenoic acid, acrolein, 2-cyclohexen-1-one, and 3-methyl-2-cyclohexenone. […] [Feng, J. et al. Discovery and Characterization of BlsE, a Radical S-Adenosyl-L-methionine Decarboxylase Involved in the Blasticidin S Biosynthetic Pathway. PLoS ONE 8 (2013)].
Kinetic studies of purified EREDBC were performed using 2-hexenedioic acid, 2-cyclohexen-1-one, 3-methyl-2-cyclohexenone, and trans-cinnamic acid as substrates (FIG. 10).
(§3) To increase the dissolved substrate concentration, 2-hexenedioic acid was dissolved in a reaction mixture containing […] (final concentration) isopropanol, and kinetic constants of EREDBC and EREDCA were determined.

[2] = system: Rhodococcus jostii aldehyde reductase RHA1_ro05279, SEQ ID NO: 47; test: AR kinetics, aldehyde reduction followed by NAD(P)H oxidation; assay type: biochemical
Source text: 28 aldehyde reductases from different bacteria were cloned and overexpressed in E. coli. Enzymes purified using affinity chromatography on Ni-NTA resin were screened for reductase activity with adipaldehyde and butyraldehyde in presence of both NADPH and NADH (Table 5). Butyraldehyde was used as a substrate substitute for 4-oxo-butanal, which is not commercially available. Reactions were followed spectrophotometrically, by cofactor oxidation at 340 nm.
(§4) Enzyme activity of purified ARs was measured spectrophotometrically in 96-well plates Reaction mixtures contained 100 mM HEPES buffer (pH 7.5), 0.4 mM NADH/NADPH, 10 mM adipaldehyde or butylaldehyde, and proteins (10 μg for adipaldehyde screen, 2 μg for butyraldehyde screen) in a final volume of 200 μL Reaction mixture for adipaldehyde screening contained 1.8% DMSO. Enzyme reactions were monitored by following the decrease in absorbance at 340 nm (ε340 nm=6,220/M·cm) due to oxidation of NAD(P)H to NAD(P)+.
ARs RHA1_ro05279, PA1146, SC00229, PP_3370 were characterised for saturation with adipaldehyde, PP_3370, PSPTO_2097, RHA1_ro05279, SC00229, TM_0111, PA1146 were characterised for butyraldehyde saturation (Table 10). […] For both substrates maximal kcat/Km with minimal Km values was shown by AR PP 3370 from Pseudomonas putida.

[3] = target: Mycobacterium paratuberculosis carboxylate reductase MAP_1040c, SEQ ID NO: 38 (Mycobacterium avium, UniProt A0ACD7BNV2); test: CAR kinetics, ATP/NADPH dependent carboxylic acid reduction
[4] = target: T1, Mycobacterium smegmatis carboxylate reductase MSMEG_5739, SEQ ID NO: 37 (Mycolicibacterium smegmatis, UniProt A0R484); test: as above
T1 sequence (A0R484 1-1173): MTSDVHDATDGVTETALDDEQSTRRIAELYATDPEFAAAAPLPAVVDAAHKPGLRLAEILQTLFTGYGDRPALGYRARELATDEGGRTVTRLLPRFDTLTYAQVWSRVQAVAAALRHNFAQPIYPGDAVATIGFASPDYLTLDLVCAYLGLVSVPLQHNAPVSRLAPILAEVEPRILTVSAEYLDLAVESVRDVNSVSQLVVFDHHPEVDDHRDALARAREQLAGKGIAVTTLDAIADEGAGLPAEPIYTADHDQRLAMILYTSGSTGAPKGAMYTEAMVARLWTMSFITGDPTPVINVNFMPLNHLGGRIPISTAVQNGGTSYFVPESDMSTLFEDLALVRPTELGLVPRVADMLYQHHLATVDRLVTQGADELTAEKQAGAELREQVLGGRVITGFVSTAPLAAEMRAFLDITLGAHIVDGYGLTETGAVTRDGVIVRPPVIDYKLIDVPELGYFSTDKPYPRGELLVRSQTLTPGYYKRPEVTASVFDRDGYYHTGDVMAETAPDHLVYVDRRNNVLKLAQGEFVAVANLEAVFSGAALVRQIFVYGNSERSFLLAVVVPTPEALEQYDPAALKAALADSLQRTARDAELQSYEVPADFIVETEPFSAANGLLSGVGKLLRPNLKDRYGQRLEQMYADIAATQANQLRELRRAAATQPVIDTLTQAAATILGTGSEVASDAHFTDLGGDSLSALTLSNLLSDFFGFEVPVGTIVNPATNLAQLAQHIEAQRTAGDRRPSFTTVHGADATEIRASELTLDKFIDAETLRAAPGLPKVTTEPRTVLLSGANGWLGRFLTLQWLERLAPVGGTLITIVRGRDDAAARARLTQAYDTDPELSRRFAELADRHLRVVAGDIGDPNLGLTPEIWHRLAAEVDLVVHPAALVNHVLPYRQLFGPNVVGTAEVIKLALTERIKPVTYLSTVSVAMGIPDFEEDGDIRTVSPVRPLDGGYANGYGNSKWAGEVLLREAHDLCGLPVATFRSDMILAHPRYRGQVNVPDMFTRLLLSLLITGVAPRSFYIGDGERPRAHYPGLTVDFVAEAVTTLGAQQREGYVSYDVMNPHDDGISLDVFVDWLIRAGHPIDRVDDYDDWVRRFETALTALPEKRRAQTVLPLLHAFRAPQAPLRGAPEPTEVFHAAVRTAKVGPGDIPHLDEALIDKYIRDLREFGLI

[5] = target: T2, Mycobacterium smegmatis carboxylate reductase MSMEG_2956, SEQ ID NO: 70 (Mycolicibacterium smegmatis, UniProt A0QWI7); test: as above
T2 sequence (A0QWI7 1-1168): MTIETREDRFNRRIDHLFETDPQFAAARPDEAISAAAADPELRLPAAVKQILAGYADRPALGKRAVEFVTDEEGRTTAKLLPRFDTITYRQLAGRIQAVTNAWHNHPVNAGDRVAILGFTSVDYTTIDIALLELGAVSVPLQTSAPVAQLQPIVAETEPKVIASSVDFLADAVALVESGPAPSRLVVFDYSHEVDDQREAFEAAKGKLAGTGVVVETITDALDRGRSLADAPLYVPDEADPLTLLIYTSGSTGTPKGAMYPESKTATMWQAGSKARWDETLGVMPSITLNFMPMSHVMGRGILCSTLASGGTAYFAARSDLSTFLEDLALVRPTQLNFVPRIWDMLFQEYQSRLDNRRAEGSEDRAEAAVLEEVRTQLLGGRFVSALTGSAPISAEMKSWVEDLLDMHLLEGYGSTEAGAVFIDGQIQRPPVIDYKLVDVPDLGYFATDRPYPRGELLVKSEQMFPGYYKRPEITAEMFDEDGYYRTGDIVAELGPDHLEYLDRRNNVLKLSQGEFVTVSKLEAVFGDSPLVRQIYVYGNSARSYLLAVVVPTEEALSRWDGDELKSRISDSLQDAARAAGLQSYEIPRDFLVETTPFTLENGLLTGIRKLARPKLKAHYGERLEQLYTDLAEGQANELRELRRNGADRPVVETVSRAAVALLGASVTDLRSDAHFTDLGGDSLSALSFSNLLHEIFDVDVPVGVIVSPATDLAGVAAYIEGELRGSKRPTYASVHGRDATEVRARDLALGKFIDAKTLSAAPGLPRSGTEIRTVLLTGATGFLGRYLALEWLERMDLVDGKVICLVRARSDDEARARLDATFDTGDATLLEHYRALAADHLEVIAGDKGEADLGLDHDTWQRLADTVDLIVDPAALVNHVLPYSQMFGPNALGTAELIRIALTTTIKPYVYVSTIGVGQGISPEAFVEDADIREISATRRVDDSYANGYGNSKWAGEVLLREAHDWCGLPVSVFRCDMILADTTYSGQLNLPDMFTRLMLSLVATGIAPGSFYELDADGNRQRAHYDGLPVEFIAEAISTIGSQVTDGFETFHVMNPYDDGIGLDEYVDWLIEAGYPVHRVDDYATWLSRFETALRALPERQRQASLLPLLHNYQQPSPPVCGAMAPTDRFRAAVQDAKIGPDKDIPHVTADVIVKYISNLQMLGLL

[6] = AR reductase activity, NAD(P)H oxidation at 340 nm; assay type: biochemical; settings: 10 mM, ND = no activity was detected
Procedure: as §4

[7] = AT activity coupled with alanine and glutamate dehydrogenases; assay type: biochemical; settings: 10 mM adipaldehyde, alanine and glutamate amino-donors; ND = no activity was detected
[8] = target: T3, Clostridium acetobutylicum DSM 1731 2-enoate reductase EREDCA, SEQ ID NO: 2 (Clostridium acetobutylicum, UniProt Q97DV0); test: Kinetics of purified EREDCA, NADH oxidation at 340 nm, anaerobic; assay type: biochemical; settings: 4 to 28 mM
T3 sequence (Q97DV0 1-664): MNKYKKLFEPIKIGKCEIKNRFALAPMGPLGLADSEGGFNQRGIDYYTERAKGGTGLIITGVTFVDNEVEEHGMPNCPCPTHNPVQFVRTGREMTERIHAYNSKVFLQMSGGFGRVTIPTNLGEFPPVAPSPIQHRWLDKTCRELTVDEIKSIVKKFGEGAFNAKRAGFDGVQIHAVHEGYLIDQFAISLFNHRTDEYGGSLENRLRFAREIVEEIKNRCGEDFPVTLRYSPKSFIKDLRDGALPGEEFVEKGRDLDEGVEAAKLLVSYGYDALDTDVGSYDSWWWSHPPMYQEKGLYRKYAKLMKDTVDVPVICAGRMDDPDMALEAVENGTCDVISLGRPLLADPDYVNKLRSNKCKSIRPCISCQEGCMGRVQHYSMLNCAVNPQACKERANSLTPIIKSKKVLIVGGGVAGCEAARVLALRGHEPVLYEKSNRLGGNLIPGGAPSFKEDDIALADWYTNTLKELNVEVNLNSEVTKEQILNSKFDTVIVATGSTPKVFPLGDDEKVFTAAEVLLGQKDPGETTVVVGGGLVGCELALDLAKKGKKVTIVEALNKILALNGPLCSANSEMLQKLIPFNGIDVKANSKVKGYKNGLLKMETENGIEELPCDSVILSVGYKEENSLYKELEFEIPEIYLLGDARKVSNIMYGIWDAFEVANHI
Procedure: as §1, §2, §3

[9] = adipaldehyde, cofactor NADH, 1,8% DMSO

Chain of Bacillus coagulans 36D1 2-enoate reductase EREDBC, SEQ ID NO: 1 (A0AAN0T7I1 entry or part of it): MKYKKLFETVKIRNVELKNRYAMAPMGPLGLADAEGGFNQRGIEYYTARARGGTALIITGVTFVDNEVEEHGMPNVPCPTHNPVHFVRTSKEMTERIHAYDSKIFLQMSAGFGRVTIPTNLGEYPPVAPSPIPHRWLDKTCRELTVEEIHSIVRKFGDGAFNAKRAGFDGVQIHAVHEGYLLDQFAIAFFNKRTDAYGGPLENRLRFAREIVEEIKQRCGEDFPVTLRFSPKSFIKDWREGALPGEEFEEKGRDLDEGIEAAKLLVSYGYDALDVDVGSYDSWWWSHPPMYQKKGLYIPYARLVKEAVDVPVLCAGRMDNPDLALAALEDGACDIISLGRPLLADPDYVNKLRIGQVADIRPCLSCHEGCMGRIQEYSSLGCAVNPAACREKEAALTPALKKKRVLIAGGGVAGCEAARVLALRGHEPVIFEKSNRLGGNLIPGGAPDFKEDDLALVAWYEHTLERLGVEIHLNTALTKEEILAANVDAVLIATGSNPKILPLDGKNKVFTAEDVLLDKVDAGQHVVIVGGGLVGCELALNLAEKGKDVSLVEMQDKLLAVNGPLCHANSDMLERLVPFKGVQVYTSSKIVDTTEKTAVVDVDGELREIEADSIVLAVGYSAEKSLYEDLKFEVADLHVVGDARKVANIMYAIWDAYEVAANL
Chain of Mycobacterium paratuberculosis carboxylate reductase MAP_1040c, SEQ ID NO: 38 (A0ACD7BNV2 entry or part of it): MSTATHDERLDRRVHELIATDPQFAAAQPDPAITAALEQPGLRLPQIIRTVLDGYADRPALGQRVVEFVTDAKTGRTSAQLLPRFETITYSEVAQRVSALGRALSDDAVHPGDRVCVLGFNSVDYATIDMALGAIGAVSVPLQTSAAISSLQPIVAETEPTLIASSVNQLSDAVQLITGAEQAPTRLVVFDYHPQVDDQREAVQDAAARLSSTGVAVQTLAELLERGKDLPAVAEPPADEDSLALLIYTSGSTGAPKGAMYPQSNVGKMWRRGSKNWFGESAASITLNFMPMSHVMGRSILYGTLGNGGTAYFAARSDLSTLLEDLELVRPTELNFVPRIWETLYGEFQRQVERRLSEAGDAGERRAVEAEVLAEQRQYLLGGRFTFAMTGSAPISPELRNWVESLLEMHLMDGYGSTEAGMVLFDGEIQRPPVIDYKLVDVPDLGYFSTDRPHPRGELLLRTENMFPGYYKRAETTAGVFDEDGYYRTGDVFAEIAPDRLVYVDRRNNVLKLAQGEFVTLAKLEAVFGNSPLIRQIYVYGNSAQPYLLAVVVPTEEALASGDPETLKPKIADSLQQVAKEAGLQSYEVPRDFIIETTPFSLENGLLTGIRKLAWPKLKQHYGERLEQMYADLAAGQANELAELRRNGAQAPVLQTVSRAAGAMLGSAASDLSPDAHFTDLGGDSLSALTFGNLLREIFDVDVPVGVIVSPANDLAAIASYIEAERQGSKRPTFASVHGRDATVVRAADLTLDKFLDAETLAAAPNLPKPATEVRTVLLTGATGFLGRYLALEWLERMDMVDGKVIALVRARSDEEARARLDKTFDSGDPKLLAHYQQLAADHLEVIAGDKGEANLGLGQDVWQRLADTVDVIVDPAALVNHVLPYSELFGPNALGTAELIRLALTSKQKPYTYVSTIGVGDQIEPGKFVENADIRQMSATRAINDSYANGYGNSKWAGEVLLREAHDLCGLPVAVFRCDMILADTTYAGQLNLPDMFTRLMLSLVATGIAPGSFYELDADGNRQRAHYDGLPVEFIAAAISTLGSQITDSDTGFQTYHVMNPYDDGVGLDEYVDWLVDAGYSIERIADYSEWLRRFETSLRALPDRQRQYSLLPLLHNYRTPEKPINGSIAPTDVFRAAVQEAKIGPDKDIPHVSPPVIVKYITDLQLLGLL

Molecule: O=C1C=CCCC1 [2-cyclohexen-1-one, 2-Cyclohexen-1-one]
- saturation by substrate [1]: no saturation

Molecule: O=CCCCCC=O [adipaldehyde]
- Km [2, 9]: 6.89 ± 1.38 mM
- kcat [2, 9]: 3.67 ± 0.31 s⁻¹
- kcat/Km [2, 9]: (5.33 ± 0.45) × ×10^2 M^−1 · s^−1

Molecule: CC1=CC(=O)CCC1 [3-methyl-2-cyclohexenone, 3-Methyl-2-cyclohexenone]
- saturation by substrate [1]: no saturation

Molecule: O=C(O)CCCCCO [6-hydroxyhexanoic acid]
- kcat [3]: 2.91 ± 0.19 s⁻¹
- kcat/Km [3]: 41.58 ± 2.77 M⁻¹ s⁻¹

Molecule: CCCC=O [butyraldehyde]
- Km ([2]; butyraldehyde, cofactor NADH): 14.3 ± 0.88 mM
- kcat ([2]; butyraldehyde, cofactor NADH): 25.77 ± 0.88 s⁻¹
- kcat/Km ([2]; butyraldehyde, cofactor NADH): (1.80 ± 0.06) × ×10^3 M^−1 · s^−1
- Km ([2]; butyraldehyde, cofactor NADPH): 1.53 ± 0.39 mM
- kcat ([2]; butyraldehyde, cofactor NADPH): 1.28 ± 0.09 s⁻¹
- kcat/Km ([2]; butyraldehyde, cofactor NADPH): (8.37 ± 0.59) × ×10^2 M^−1 · s^−1

Molecule: O=C(O)CCCCC(=O)O [adipic acid]
- Km [4]: 87.5 ± 16.2 mM
- kcat [4]: 2.40 ± 0.26 s⁻¹
- kcat [5]: 2.73 ± 0.20 s⁻¹
- kcat/Km [5]: 25.2 ± 1.83 M⁻¹ s⁻¹

Molecule: RHA1_ro05279: aldehyde reductase (AR) from Rhodococcus jostii
- Activity [U/mg protein] Adipaldehyde ([6]; 1.8% DMSO): 0.721 ± 0.026 U/mg protein
- Activity [U/mg protein] Butyraldehyde [6]: 0.905 ± 0.834 U/mg protein

Molecule: Rsp3534: aminotransferase (AT) from Rhodobacter sphaeroides
- Adipaldehyde 10 mM U/mg [7]: 0.034 ± 0.005 U/mg

Molecule: O=C(O)C=CCCC(=O)O (racemic) [2-hexenedioic acid, 2-Hexenedioic acid]
- saturation by substrate [8]: no saturation
- fold higher catalytic efficiency (kcat/Km) of EREDBC compared to EREDCA ([1]; 2-hexenedioic acid in 0.25 mM isopropanol, 2.5 to 35 mM): 14.6 fold
- saturation by substrate [1]: no saturation
